The target of this assay is Neuropeptides B/W receptor type 1 (Homo sapiens) (UniProt P48145). Nature of the assay: NPBW1 receptor blockers in cells – cell-based, fluorescence, dose response, set 3, late-stage follow-up (AID 540365). The conditions noted are these: GPR7-expressing cells, fluorescence antagonist read-out.

Calls of active or inactive are those of the source. The rule behind the calls is not given here. Where only a bound is given, the exact number is not on record here.

In the case of `CCCOc1ccc(Oc2c(Cl)cnn(C3c4ccccc4-c4ccccc43)c2=O)cc1`, the IC50 runs as follows: (run 1) > 20000 nM (inactive); (run 2) > 20000 nM (inactive); (run 3) > 20000 nM (inactive).

As for `CCCOc1ccc(Oc2c(Cl)cnn(Cc3cccc4ccccc34)c2=O)cc1`, the IC50 by setting is: (run 1) 1140 nM; (run 2) 1080 nM; (run 3) 1120 nM.

Turning to `COc1ccc(Oc2c(Cl)cnn(Cc3ccc4ccccc4c3)c2=O)cc1`, the IC50 was 1480 nM (run 1), 1950 nM (run 2) and 2020 nM (run 3).

For the compound `COc1ccc(Oc2c(Cl)cnn(C(c3ccccc3)c3ccccc3)c2=O)cc1`, the IC50 by setting is: (run 1) 580 nM; (run 2) 497 nM; (run 3) 481 nM.

On to `CCOC(=O)C(c1cccc2ccccc12)n1ncc(Cl)c(Oc2ccc(OC)cc2)c1=O` (centres undefined), for which the IC50 is, setting by setting: (run 1) 451 nM; (run 2) 597 nM; (run 3) 1310 nM.

As for `CCOc1ccc(Oc2c(S(C)=O)cnn(Cc3cccc4ccccc34)c2=O)cc1` (centres undefined), the IC50 is, setting by setting: (run 1) 2220 nM; (run 2) 2130 nM; (run 3) 2090 nM.

As for `COc1ccc(Oc2c(Cl)cnn(Cc3c(F)cccc3F)c2=O)cc1`, the IC50 reads like this: (run 1) 843 nM; (run 2) 726 nM; (run 3) 719 nM.

Consider `COc1ccc(Oc2c(Br)cnn(Cc3cccc4ccccc34)c2=O)cc1`, for which the IC50 by setting is: (run 1) 132 nM; (run 2) 242 nM; (run 3) 240 nM.

As to `COc1ccc(Sc2c(Cl)cnn(Cc3cccc4ccccc34)c2=O)cc1`, the IC50 (run 1) is 660 nM and the concentration for half-maximal inhibition (IC50) (run 2) is 1030 nM.

With `CCOC(=O)C(c1ccccc1)n1ncc(Cl)c(Oc2ccc(OC)cc2)c1=O` (centres undefined), the IC50 runs as follows: (run 1) 1320 nM; (run 2) 864 nM; (run 3) 953 nM.

Take `CCOc1ccc(Oc2c(Cl)c(Br)nn(Cc3cccc4ccccc34)c2=O)cc1`: the half-inhibitory concentration (IC50) by setting is: (run 1) 177 nM; (run 2) 237 nM.

In the case of `CCOc1ccc(Oc2c(Cl)cnn(C3c4ccccc4-c4ccccc43)c2=O)cc1`, the half-inhibitory concentration (IC50) reads like this: (run 1) 480 nM; (run 2) 168 nM; (run 3) 207 nM.

On to `C=Cc1nn(Cc2ccccc2C)c(=O)c(Oc2ccc(OC)cc2)c1C=C`, for which the IC50 by setting is: (run 1) 418 nM; (run 2) 808 nM; (run 3) 818 nM.

`COc1ccc(Oc2c(Cl)cnn(Cc3cccc4cnccc34)c2=O)cc1`: the IC50 is 3400 nM (run 1), 4100 nM (run 2) and 4930 nM (run 3).

For `COc1ccc(Oc2c(Cl)c(C#N)nn(Cc3ccccc3C)c2=O)cc1`, the IC50 reads like this: (run 1) 1090 nM; (run 2) 1270 nM; (run 3) 1190 nM.

Take `COc1ccc(Nc2c(Cl)cnn(Cc3cccc4ccccc34)c2=O)cc1`: the IC50 entry (run 1) is “inactive”. Further, the IC50 is 9470 nM (run 2) and > 20000 nM (inactive) (run 3).

As to `COc1ccc(Oc2c(C#N)cnn(Cc3cccc4ccccc34)c2=O)cc1`, the 50% inhibitory concentration (IC50) by setting is: (run 1) 1310 nM; (run 2) 1690 nM; (run 3) 2490 nM.

By IC50 is commonly meant the concentration needed to halve the response being measured.

The values above are taken from PubChem BioAssay AID540365 (The Scripps Research Institute Molecular Screening Center, 2011).
